This is an account of results in publication PMC8623418, “Novel Multitarget Hydroxamic Acids with a Natural Origin CAP Group against Alzheimer’s Disease: Synthesis, Docking and Biological Evaluation” (Pharmaceutics, 2021).

The structures appear in SMILES notation.

The subject of assay [1] is 5xFAD transgenic mice. The assay can be described thus: Open field test in 5xFAD mice. It counts as in vivo. To be noted: 15 mg/kg i.p. for 20 days, 11-month-old male 5xFAD mice. As to the method: All animal procedures were approved by the Animal Care and Use Committee of IPAC RAS. For in vivo studies, 11-month-old male mice of the 5xFAD line (Tg(APPSwFlLon,PSEN1*M146L*L286V) 6799Vas/J) were used. The animals were housed in cages with free access to water and food in a room with a 12 h/12 h light–dark cycle, at a temperature of 23 ± 1 °C and humidity of 50 ± 5%. Before the series of experiments, animals were randomly divided into four groups (n = 8 per group): (1) wild-type group (C57BL6/j mouse line); (2) 5xFAD group; (3) 5xFAD + 15 group; and (4) 5xFAD + 25 group.
Both compounds 15 and 25 were dissolved in saline solution and DMSO (10%) immediately before use and intraperitoneally administered to animals for 20 days at a dose of 15 mg/kg body weight for experiments. In the control group, the vehicle solution (saline and DMSO (10%), intraperitoneal) was administered with the same time schedule.
The open field box consisted of a square, non-transparent, grey box (40 cm × 40 cm × 40 cm). Illumination intensity was kept at 50 lux. During a session, a single animal was allowed to explore the empty open field, and its baseline level of activity was measured. The session lasted for 10 min (Figure 5A). […] The number of standing events was manually counted in a blind manner by one observer. […]

Assay [2] concerns 5xFAD transgenic mice. The assay can be described thus: Ex vivo Congo red staining of Aβ plaques in brain sections. The settings on record: compared to untreated 5XFAD mice. As to the method: For histological examination, the mouse brain was fixed in 10% neutral buffered formalin (Leica Biosystems Inc., Buffalo Grove, IL, USA) at +4 °C for 24 h. Then, the material was dehydrated, defatted, and clarified in a Leica ASP200 apparatus (Leica Biosystems Inc., Buffalo Grove, IL, USA) using ethanol-xylene wiring according to the following scheme: deionized water—2 h; 70% ethanol—12 h; ethanol 96% sequentially—1 h, 30 min, 2 portions 15 min each; a mixture of ethanol and xylene 1:1—20 min; xylene—2 portions for 30 min each; paraffin—3 times for 1 h each. Then, the material was embedded in paraffin blocks using a Leica EG1160 apparatus (Leica Biosystems Inc., Buffalo Grove, IL, USA). […] The results were evaluated using a ZEISS LSM 880 laser scanning microscope with an Airyscan module (Carl Zeiss Vision, Jena, Germany). […] A 10 × 10 grid was imposed on images containing only brain tissue; then, in 10 grid cells located obliquely from top left to right bottom corner, we selected plaques using the ‘magic wand’ tool, so the average plaque area and luminosity were calculated. Three images were analyzed for each animal in each group; then, the average of three animals was calculated. […]

Take `O=C(CCCCCCC(=O)NC1C2CC3CC(C2)CC1C3)NO` (stereo not shown) [compound 15, N^1-(Adamant-2-yl)-N^8-Hydroxyoctanediamide]: the “Open field: standing events, distance, movement rate, time in central and peripheral areas” value in the assay with 5xFAD transgenic mice [1] is “did not show any alteration”. Besides, in the assay on 5xFAD transgenic mice [2], the “Reduction in plaque load (Congo red-positive amyloid)” value stood at 45%.

On to `O=C(/C=C/c1ccc(C(=O)NO)cc1)NC1C2CC3CC(C2)CC1C3` (stereo not shown) [compound 25, 4-((E)-3-((-Adamantan-2-yl)amino)-3-Oxoprop-1-en-1-yl)-N-Hydroxybenzamide], for which, in the assay with 5xFAD transgenic mice [1], the “Open field: standing events, distance, movement rate, time in central and peripheral areas” value is on record as “did not show any alteration”. The “Reduction in plaque load (Congo red-positive amyloid)” value with 5xFAD transgenic mice [2] was “No changes in β-amyloid plaque level”.
